Article doi:10.1101/2023.09.11.557162v4 (biorxiv, 2025)
Where two headings read alike, the source gives them in different places.

Legend:
Assay in all cases: DNA-dependent ATPase assay
Format in all cases: biochemical
SMARCA4 = SMARCA4 (Homo sapiens, UniProt P51532)
SMARCA2 = SMARCA2 (Homo sapiens, UniProt P51531)
CHD4 = CHD4 (Homo sapiens, UniProt Q14839)
Chain of CHD4 (Q14839 whole entry): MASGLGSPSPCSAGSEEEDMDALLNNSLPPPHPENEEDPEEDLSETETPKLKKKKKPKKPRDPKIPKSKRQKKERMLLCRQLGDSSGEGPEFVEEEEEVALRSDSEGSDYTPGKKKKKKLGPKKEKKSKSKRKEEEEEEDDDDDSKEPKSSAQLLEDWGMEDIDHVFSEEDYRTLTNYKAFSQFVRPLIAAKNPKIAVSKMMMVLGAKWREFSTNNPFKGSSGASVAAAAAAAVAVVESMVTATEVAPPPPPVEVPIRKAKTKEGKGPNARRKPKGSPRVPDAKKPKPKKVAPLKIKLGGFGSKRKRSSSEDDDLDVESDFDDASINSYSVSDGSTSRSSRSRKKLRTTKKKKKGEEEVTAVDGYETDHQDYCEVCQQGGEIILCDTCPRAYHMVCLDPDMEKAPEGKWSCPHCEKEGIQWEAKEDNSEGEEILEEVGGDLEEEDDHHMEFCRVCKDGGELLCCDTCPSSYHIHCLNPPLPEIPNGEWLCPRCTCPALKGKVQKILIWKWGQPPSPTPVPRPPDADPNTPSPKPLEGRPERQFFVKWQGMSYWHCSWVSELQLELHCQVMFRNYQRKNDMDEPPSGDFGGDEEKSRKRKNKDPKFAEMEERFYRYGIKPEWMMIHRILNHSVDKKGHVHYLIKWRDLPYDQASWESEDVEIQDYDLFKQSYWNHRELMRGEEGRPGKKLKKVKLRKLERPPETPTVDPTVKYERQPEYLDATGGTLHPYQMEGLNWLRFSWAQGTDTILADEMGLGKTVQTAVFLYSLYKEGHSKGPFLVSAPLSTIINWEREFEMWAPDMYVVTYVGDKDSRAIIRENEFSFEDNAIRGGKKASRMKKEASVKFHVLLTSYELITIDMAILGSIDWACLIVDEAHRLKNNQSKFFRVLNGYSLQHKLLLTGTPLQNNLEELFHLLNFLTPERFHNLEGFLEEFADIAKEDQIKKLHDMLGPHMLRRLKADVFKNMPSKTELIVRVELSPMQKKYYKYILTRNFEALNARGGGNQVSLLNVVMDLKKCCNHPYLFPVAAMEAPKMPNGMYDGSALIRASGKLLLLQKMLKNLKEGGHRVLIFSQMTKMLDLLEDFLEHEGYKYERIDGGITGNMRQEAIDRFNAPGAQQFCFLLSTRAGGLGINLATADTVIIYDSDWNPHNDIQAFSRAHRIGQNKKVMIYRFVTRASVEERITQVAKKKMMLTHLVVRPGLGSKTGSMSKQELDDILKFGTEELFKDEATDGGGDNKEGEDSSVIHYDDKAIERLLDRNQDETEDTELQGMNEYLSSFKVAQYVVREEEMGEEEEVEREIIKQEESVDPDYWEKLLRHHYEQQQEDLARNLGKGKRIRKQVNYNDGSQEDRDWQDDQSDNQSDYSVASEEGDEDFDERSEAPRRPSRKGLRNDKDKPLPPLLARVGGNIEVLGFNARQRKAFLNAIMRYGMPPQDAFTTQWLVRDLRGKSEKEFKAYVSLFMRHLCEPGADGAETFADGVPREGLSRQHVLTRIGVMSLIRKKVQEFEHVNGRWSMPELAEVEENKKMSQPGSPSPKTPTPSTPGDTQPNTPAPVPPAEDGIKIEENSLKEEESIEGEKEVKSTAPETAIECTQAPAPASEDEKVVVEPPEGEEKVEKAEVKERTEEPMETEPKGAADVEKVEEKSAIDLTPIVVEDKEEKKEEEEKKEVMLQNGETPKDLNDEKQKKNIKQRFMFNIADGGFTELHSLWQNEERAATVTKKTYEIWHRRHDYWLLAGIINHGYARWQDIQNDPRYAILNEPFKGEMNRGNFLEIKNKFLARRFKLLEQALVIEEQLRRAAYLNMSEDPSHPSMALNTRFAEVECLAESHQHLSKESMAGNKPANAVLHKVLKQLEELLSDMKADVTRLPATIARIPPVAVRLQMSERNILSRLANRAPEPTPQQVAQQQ

Chain of SMARCA2 (P51531 whole entry): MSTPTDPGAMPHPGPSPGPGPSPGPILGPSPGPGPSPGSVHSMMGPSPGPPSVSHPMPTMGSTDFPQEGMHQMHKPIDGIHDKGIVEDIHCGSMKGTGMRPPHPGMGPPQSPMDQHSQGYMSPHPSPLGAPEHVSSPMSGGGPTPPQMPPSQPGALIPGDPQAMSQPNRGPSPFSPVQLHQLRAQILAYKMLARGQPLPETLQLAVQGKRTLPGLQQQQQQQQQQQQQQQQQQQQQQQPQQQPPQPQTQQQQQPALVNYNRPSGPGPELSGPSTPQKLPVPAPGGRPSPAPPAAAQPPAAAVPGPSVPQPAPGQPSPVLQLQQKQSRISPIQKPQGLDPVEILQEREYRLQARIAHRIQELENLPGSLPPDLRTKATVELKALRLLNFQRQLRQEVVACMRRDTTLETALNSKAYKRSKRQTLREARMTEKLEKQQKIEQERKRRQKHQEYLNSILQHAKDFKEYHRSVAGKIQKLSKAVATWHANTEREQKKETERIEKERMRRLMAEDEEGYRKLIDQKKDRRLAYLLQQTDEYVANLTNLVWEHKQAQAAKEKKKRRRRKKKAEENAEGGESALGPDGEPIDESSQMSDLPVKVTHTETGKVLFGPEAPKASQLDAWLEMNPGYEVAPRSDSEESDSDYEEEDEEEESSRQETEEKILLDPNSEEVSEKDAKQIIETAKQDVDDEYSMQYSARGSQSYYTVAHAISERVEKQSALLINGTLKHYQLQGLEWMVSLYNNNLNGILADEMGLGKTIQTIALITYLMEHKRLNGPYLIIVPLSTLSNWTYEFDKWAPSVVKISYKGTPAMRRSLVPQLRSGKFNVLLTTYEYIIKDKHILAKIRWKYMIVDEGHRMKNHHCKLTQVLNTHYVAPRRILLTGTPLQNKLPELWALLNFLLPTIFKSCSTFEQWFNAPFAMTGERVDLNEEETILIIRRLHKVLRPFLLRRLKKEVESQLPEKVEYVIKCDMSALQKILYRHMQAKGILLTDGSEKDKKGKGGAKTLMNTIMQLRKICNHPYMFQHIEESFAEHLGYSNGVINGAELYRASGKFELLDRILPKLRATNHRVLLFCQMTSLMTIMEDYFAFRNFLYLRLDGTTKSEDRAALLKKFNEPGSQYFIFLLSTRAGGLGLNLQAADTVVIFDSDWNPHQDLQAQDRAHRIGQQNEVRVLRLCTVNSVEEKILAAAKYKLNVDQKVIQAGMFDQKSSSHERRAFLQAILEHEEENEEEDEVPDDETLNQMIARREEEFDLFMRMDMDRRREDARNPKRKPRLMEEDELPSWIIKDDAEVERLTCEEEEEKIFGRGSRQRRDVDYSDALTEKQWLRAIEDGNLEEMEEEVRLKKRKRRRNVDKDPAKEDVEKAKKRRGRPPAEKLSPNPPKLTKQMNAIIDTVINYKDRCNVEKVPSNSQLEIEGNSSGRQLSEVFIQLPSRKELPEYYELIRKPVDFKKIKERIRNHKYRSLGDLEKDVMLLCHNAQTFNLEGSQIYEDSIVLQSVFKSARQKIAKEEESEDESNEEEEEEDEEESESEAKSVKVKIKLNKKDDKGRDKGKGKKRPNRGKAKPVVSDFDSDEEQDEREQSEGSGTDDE
Chain of SMARCA4 (P51532 whole entry): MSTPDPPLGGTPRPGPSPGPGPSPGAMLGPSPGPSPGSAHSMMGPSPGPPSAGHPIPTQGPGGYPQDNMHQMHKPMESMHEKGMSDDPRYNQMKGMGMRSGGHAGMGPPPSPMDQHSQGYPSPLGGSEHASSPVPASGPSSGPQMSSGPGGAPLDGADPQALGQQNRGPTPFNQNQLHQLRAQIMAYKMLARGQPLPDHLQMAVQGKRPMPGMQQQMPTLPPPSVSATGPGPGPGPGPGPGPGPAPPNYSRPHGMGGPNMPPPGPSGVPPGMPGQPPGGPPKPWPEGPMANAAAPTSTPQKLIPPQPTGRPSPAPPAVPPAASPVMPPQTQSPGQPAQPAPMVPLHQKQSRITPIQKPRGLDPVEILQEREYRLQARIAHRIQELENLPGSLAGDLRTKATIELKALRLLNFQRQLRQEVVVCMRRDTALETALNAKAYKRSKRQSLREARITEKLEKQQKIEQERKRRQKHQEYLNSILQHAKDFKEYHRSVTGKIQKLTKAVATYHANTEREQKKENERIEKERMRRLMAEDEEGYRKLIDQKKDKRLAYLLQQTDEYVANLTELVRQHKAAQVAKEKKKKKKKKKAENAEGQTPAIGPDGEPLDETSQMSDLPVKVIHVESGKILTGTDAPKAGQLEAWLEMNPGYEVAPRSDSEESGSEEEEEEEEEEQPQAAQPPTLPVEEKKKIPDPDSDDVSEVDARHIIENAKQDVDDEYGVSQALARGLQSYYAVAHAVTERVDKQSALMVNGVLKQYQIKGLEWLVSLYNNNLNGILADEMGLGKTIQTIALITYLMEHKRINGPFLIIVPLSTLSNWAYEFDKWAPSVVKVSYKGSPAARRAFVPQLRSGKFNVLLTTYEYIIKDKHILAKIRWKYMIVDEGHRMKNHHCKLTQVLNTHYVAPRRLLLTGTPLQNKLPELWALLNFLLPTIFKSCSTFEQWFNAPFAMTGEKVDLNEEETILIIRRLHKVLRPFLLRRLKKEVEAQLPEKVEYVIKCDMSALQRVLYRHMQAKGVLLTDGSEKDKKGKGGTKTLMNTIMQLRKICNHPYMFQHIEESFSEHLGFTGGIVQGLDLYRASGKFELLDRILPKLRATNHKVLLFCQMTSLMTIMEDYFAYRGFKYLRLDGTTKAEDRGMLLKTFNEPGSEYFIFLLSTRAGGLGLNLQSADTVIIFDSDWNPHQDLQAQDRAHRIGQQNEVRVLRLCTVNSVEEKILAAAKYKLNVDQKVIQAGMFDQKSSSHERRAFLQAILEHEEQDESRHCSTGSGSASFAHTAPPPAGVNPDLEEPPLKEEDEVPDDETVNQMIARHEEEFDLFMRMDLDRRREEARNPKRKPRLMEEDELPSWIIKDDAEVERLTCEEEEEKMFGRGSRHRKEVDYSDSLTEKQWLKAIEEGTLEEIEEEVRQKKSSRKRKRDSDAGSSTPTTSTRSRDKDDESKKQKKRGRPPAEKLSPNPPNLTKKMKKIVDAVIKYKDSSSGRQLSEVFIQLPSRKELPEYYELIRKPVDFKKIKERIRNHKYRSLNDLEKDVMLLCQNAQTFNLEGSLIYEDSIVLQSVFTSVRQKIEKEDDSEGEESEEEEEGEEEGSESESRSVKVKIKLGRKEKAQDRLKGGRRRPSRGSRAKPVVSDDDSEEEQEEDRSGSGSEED

Row | SMILES | IC50 (SMARCA4) [µM] | IC50 (SMARCA2) [nM] | IC50 (SMARCA4; DNA-stimulated ATPase) [µM] | IC50 (CHD4) [µM]
1 | CN(C)S(=O)(=O)c1cccc(C(=O)NCC(=O)Nc2nc(-c3ccccc3)cs2)c1 [FHT-185] | 6.04 ± 1.04 | 2500 ± 500 |  | 
2 | COC[C@H](NC(=O)c1ccn(S(C)(=O)=O)c1)C(=O)Nc1nc(-c2cccc(-c3ccn(C)n3)c2)cs1 [FHT-2344] |  | 13 ± 3 | 0.026 ± 0.006 | > 200
